Measured values taken from patent USRE47689E1, “Compounds for treating spinal muscular atrophy” (PTC Therapeutics, Inc., priority 2011, dated 2019).
Like-named read-outs stand apart in the source and are kept apart here.

Assays:
[1] = system: SMN2 minigene (full length SMN2 minigene mRNA containing SMN2 exon 7); experiment: SMN2 minigene mRNA splicing RT-qPCR assay in cultured cells; type: cell-based, human; conditions: Homo sapiens, HEK293-H, read-out: EC1.5x for production of full length SMN2 mRNA
Summary of the method: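 Full-length SMN2 minigene mRNA (exon 7 included), minigene-specific and not endogenous SMN, quantified by RT-qPCR multiplexed with GAPDH in stably transfected HEK293H cells after 24 h compound exposure at 37° C. Abundance from efficiency-corrected Ct, normalized to GAPDH and vehicle; EC1.5x reported as star bins.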

Smn protein = Smn protein assay in cultured cells (SMN HTRF); type: cell-based, human; conditions: for EC1.5x (concentration giving 1.5-fold Smn protein increase): read-out: EC1.5x for Smn protein expression
Summary of the method: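 Smn in SMA fibroblast lysates, measured by anti-SMN HTRF after 48 h compound exposure; EC1.5x from fold change over vehicle.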

[2] = HEK293H cells stably transfected with SMN2-A minigene, 24 hours, 7-point concentration curve, 1.5-fold relative to vehicle-treated cells
[3] = SMA Type 1 patient fibroblast cells (GM03813), 48 hours, 7-point concentration curve, SMN HTRF, concentration producing 1.5 times Smn protein vs DMSO vehicle control
[4] = SMA patient fibroblast cells, 48 hours, 7-point concentration data, fold increase relative to vehicle control (SMN HTRF)

Row | SMILES | melting point [°C] | EC (1.5-fold) [1, 2] [µM] | EC1.5x (concentration giving 1.5-fold Smn protein increase) (Smn protein; [3]) [nM] | maximum fold (Fold) increase of Smn protein (Smn protein; [4]) | EC (1.5-fold) ([1]; 24 h) [µM] | maximum fold (Fold) increase of Smn protein (Smn protein) | EC1.5x (concentration giving 1.5-fold Smn protein increase) (Smn protein) [nM]
1 | CCN1CCC(F)(c2ccc3cc(-c4cn5cc(C)nc(C)c5n4)c(=O)oc3c2)CC1 [Cpd 958, 3-(6,8-dimethylimidazo[1,2-a]pyrazin-2-yl)-7-(1-ethyl-4-fluoropiperidin-4-yl)-2H-chromen-2-one] | 162 to 164 | – | – | – | < 0.1 | ***** (key: *: maximum fold increase of ≤1.2; **: fold increase between >1.2 and ≤1.35; ***: fold increase between >1.35 and ≤1.5; ****: fold increase between >1.5 and ≤1.65; *****: fold increase >1.65) | < 300
2 | Cc1cn2cc(-c3cc4ccc(N5CCN(C)[C@H](C)C5)cc4oc3=O)nc2c(C)n1 [Compound 606, 3-(6,8-dimethylimidazo[1,2-a]pyrazin-2-yl)-7-[(3R)-3,4-dimethylpiperazin-1-yl]-2H-chromen-2-one] | 220 to 221 | < 0.1 | < 300 | ***** (fold increase >1.65) | – | – | –
3 | Cc1c(-c2nc3ccccc3s2)c(=O)oc2cc(N3CCNCC3)ccc12 [Compound 147, 3-(1,3-benzothiazol-2-yl)-4-methyl-7-(piperazin-1-yl)-2H-chromen-2-one] | 234 to 236 | 1 to 3 | – | * (maximum fold increase of ≤1.2) | – | – | –
4 | CCN(CC)Cc1ccc2cc(-c3nc4ccccc4s3)c(=O)oc2c1 [Compound 57, 3-(1,3-benzothiazol-2-yl)-7-[(diethylamino)methyl]-2H-chromen-2-one] | 116 to 119 | 1 to 3 | – | ** (fold increase between >1.2 and ≤1.35) | – | – | –
5 | CCN1CCN(c2ccc3cc(-c4cc5cc(C)ccn5n4)c(=O)oc3c2)CC1 [Compound 307, 7-(4-ethylpiperazin-1-yl)-3-(5-methylpyrazolo[1,5-a]pyridin-2-yl)-2H-chromen-2-one] | 257 to 259 | 0.3 to 1 | 3000 to 10000 | *** (fold increase between >1.35 and ≤1.5) | – | – | –
6 | Cc1cn2cc(-c3cc4ccc(N5CCC(NC6CCC6)CC5)cc4oc3=O)nc2c(C)n1 [Compound 924, 7-[4-(cyclobutylamino)piperidin-1-yl]-3-(6,8-dimethylimidazo[1,2-a]pyrazin-2-yl)-2H-chromen-2-one] | 222 to 225 | < 0.1 | < 300 | **** (fold increase between >1.5 and ≤1.65) | – | – | –

The next lines start with results.

Row | melting point [°C] | SMILES | EC (1.5-fold) [1, 2] [µM] | EC1.5x (concentration giving 1.5-fold Smn protein increase) (Smn protein; [3]) [nM] | maximum fold (Fold) increase of Smn protein (Smn protein; [4]) | EC (1.5-fold) ([1]; 24 h) [µM] | maximum fold (Fold) increase of Smn protein (Smn protein) | EC1.5x (concentration giving 1.5-fold Smn protein increase) (Smn protein) [nM]
7 | 189 to 193 | Cc1cn2cc(-c3cc4ccc(N5CCC(N(C)C)CC5)cc4oc3=O)nc2c(C)n1 [Compound 921, 7-[4-(dimethylamino)piperidin-1-yl]-3-(6,8-dimethylimidazo[1,2-a]pyrazin-2-yl)-2H-chromen-2-one] | < 0.1 | < 300 | **** (fold increase between >1.5 and ≤1.65) | – | – | –
8 | 150 to 152 | Cc1cn2cc(-c3cc4ccc(N5CC(CN(C)C)C5)cc4oc3=O)nc2c(C)n1 [Compound 966, 7-{3-[(dimethylamino)methyl]azetidin-1-yl}-3-(6,8-dimethylimidazo[1,2-a]pyrazin-2-yl)-2H-chromen-2-one] | < 0.1 | < 300 | **** (fold increase between >1.5 and ≤1.65) | – | – | –
9 | 202 to 205 | CCN1CCN(c2ccc3cc(-c4cn5ccsc5n4)c(=O)oc3c2)CC1 [Compound 201, 7-(4-ethylpiperazin-1-yl)-3-(imidazo[2,1-b][1,3]thiazol-6-yl)-2H-chromen-2-one] | 0.3 to 1 | – | ** (fold increase between >1.2 and ≤1.35) | – | – | –
10 | 289 to 292 | CN1CCCN(c2ccc3cc(-c4cn5cc(Cl)cnc5n4)c(=O)oc3c2)CC1 [Compound 337, 3-(6-chloroimidazo[1,2-a]pyrimidin-2-yl)-7-(4-methyl-1,4-diazepan-1-yl)-2H-chromen-2-one] | 1 to 3 | – | * (maximum fold increase of ≤1.2) | – | – | –
